Experimental data: patent US20130085064A1, “PESTICIDAL MIXTURES CONTAINING ISOXAZOLINE DERIVATIVES AND INSECTICIDE OR NEMATOICIDAL BIOLOGICAL AGENT” (priority 2010, published 2013)
Several values for one entry are separate records, joined by “and”; a condition that tells them apart may be missing. Equal entries are not always repeated. Where two headings read alike, the source gives them in different places.

What was measured:
Type in all cases: in vivo
[1] = test system: Spodoptera littoralis (Egyptian cotton leaf worm); experiment: Spodoptera littoralis larvicide L1, feeding/contact, cotton leaf discs; conditions: single compound
Source text: (§1) The action to be expected E for a given active ingredient combination obeys the so-called COLBY formula and can be calculated as follows (COLBY, S.R. “Calculating synergistic and antagonistic responses of herbicide combination”. Weeds, Vol. 15, pages 20-22; 1967):
(§2) ppm=milligrams of active ingredient (=a.i.) per liter of spray mixture X=% action by active ingredient A) using p ppm of active ingredient Y=% action by active ingredient B) using q ppm of active ingredient.
(§3) According to COLBY, the expected (additive) action of active ingredients A)+B) using p+q ppm of active ingredient is
(§4) If the action actually observed (O) is greater than the expected action (E), then the action of the combination is super-additive, i.e. there is a synergistic effect. In mathematical terms the synergism factor SF corresponds to O/E. In the agricultural practice an SF of ≧1.2 indicates significant improvement over the purely complementary addition of activities (expected activity), while an SF of ≦0.9 in the practical application routine signals a loss of activity compared to the expected activity.
Spodoptera Littoralis (Egyptian Cotton Leaf Worm)
(Larvicide L1, Feeding/Contact)
Cotton leaf discs are placed on agar in Petri dishes and sprayed with test solutions in an application chamber. After drying, the leaf discs are infested with 10 L1 larvae. The samples are checked for mortality 5 days after treatment. 3 replicates per treatment were evaluated. (1 PPM=1 mg l^−1)

[2] = test system: Heliothis virescens (tobacco budworm); experiment: Heliothis virescens ovo-larvicide, feeding/contact, eggs on filter paper in Petri dishes; conditions: for AVERAGE DEAD IN % (EGGS) / AVERAGE DEAD IN % (LARVAE): single compound, 7 days
Source text: as §1, §2, §3, §4
Heliothis Virescens (Tobacco Budworm):
(Ovo-Larvicide, Feeding/Contact)
30-35 fresh eggs (0-24 h old), deposited on filter paper, are placed in Petri dishes on top of a layer of artificial diet and 0.8 ml of diluted test solutions are pipetted onto them. After an incubation period of 7 days, samples are checked for egg and larval mortality. 3 replicates per treatment were evaluated.

[3] = test system: Heliothis virescens (tobacco budworm); experiment: Heliothis virescens eggs in 24-well microtiter plate on artificial diet, larval mortality; conditions: Heliothis virescens, 96 h, read-out: AVERAGE DEAD IN %
Source text: as §1, §2, §3, §4
Heliothis Virescens (Tobacco Budworm)
Eggs (0-24 h old) are placed in 24-well microtiter plate on artificial diet and treated with test solutions (DMSO) by pipetting. After an incubation period of 4 days, samples are checked for larval mortality.

[4] = test system: Tetranychus urticae (two spotted spider mite); experiment: Tetranychus urticae contact/feeding activity on bean plants, adult mortality
Source text: as §1, §2, §3, §4
Tetranychus Urticae (Two Spotted Spider Mite)
(Contact/Feeding Activity)
Bean plants are infested with mite populations of mixed ages. 1 day after infestation, plants are treated in a spray chamber with diluted test solutions. 1 and 8 days later, samples are checked for adult mortality. 2 replicates per treatment were evaluated.

**Q.** CCOC(=O)OC1=C(c2cc(C)ccc2C)C(=O)N[C@]12CC[C@@H](OC)CC2 [Spirotetramat, spirotetramat] was tested. Which “AVERAGE DEAD IN % AFTER 5 DAYS” value ([1]; 25 ppm AI) did it give?
**A.** The value was 23%.

**Q.** And the “AVERAGE DEAD IN % AFTER 5 DAYS” value ([1]; 50 PPM AI)?
**A.** Its value is 17% and 33%.

**Q.** What about the “AVERAGE DEAD IN % AFTER 5 DAYS” value ([1]; 50 ppm AI) of the same molecule?
**A.** The value was 33%.

**Q.** What about the “AVERAGE DEAD IN % AFTER 5 DAYS” value ([1]; 100 PPM AI) of the same molecule?
**A.** Its value is 43% and 67%.

**Q.** What about the “AVERAGE DEAD IN % AFTER 5 DAYS” value ([1]; 100 ppm AI) of the same molecule?
**A.** Its value is 67%.

**Q.** What about the “AVERAGE DEAD IN % (EGGS)” value ([2]; 100 ppm AI) of the same molecule?
**A.** The value was 0%.

**Q.** And the “AVERAGE DEAD IN % (LARVAE)” value ([2]; 100 ppm AI, larvae)?
**A.** The value was 78%.

**Q.** What about the “AVERAGE DEAD IN % (EGGS)” value ([2]; 200 ppm AI) of the same molecule?
**A.** Its value is 67% and 65%.

**Q.** And the “AVERAGE DEAD IN % (LARVAE)” value ([2]; 200 ppm AI, larvae)?
**A.** The value was 100% and 98%.

**Q.** And the pest or weed control at 6.25 ppm ([3]; Spirotetramat alone 6.25 ppm AI)?
**A.** Its pest or weed control at 6.25 ppm is 0%.

**Q.** And the pest or weed control at 12.5 ppm ([3]; Spirotetramat alone 12.5 ppm AI)?
**A.** The pest or weed control at 12.5 ppm was 0%.

**Q.** And the pest or weed control at 25 ppm ([3]; Spirotetramat alone 25 ppm AI)?
**A.** Its pest or weed control at 25 ppm is 0%.

**Q.** What about the pest or weed control at 50 ppm ([3]; Spirotetramat alone 50 ppm AI) of the same molecule?
**A.** Its pest or weed control at 50 ppm is 0%.

**Q.** And the pest or weed control at 100 ppm ([3]; Spirotetramat alone 100 ppm AI)?
**A.** The pest or weed control at 100 ppm was 0%.

**Q.** And the pest or weed control at 200 ppm ([3]; Spirotetramat alone 200 ppm AI)?
**A.** Its pest or weed control at 200 ppm is 0%.

**Q.** And the pest or weed control at 6.25 ppm ([3]; single compound at 6.25 ppm AI)?
**A.** Its pest or weed control at 6.25 ppm is 0%.

**Q.** What about the pest or weed control at 12.5 ppm ([3]; single compound at 12.5 ppm AI) of the same molecule?
**A.** The pest or weed control at 12.5 ppm was 0%.

**Q.** And the pest or weed control at 25 ppm ([3]; single compound at 25 ppm AI)?
**A.** Its pest or weed control at 25 ppm is 0%.

**Q.** What about the pest or weed control at 50 ppm ([3]; single compound at 50 ppm AI) of the same molecule?
**A.** The pest or weed control at 50 ppm was 0%.

**Q.** What about the pest or weed control at 100 ppm ([3]; single compound at 100 ppm AI) of the same molecule?
**A.** Its pest or weed control at 100 ppm is 0%.

**Q.** And the pest or weed control at 200 ppm ([3]; single compound at 200 ppm AI)?
**A.** Its pest or weed control at 200 ppm is 0%.

**Q.** What about the “AVERAGE DEAD IN % AFTER 8 DAYS” value ([4]; 0.1 ppm alone) of the same molecule?
**A.** The value was 10%.

**Q.** And the “AVERAGE DEAD IN % AFTER 8 DAYS” value ([4]; 0.2 ppm alone)?
**A.** Its value is 33%.

**Q.** What about the “AVERAGE DEAD IN % AFTER 8 DAYS” value ([4]; 0.4 ppm alone) of the same molecule?
**A.** The value was 38%.

**Q.** What about the “AVERAGE DEAD IN % AFTER 1 DAY” value ([4]; Spirotetramat alone 0.1 ppm AI) of the same molecule?
**A.** Its value is 13%.

**Q.** And the “AVERAGE DEAD IN % AFTER 1 DAY” value ([4]; Spirotetramat alone 0.2 ppm AI)?
**A.** Its value is 18%.

**Q.** And the “AVERAGE DEAD IN % AFTER 1 DAY” value ([4]; Spirotetramat alone 0.4 ppm AI)?
**A.** Its value is 23%.

**Q.** How did the “AVERAGE DEAD IN % AFTER 5 DAYS” value ([1]; 100 PPM AI) turn out when CC1=NNC(=O)N(/N=C/c2cccnc2)C1 [Pymetrozine, pymetrozine] was run?
**A.** The value was 17% and 7%.

**Q.** And the “AVERAGE DEAD IN % AFTER 5 DAYS” value ([1]; 100 ppm AI)?
**A.** Its value is 7%.

**Q.** What about the “AVERAGE DEAD IN % AFTER 5 DAYS” value ([1]; 200 PPM AI) of the same molecule?
**A.** Its value is 20% and 17%.

**Q.** What about the “AVERAGE DEAD IN % AFTER 5 DAYS” value ([1]; 200 ppm AI) of the same molecule?
**A.** Its value is 17%.

**Q.** What about the activity on eggs ([2]; egg mortality, 7 days incubation) of the same molecule?
**A.** Its activity on eggs is “inactive”.

**Q.** What about the “AVERAGE DEAD IN % (LARVAE)” value ([2]; 100 ppm AI, larvae) of the same molecule?
**A.** The value was 0%.

**Q.** And the “AVERAGE DEAD IN % (LARVAE)” value ([2]; 200 PPM AI)?
**A.** The value was 37%.

**Q.** What about the “AVERAGE DEAD IN % (LARVAE)” value ([2]; 200 ppm AI, larvae) of the same molecule?
**A.** Its value is 40%.

**Q.** And the pest or weed control at 25 ppm ([3]; Pymetrozine alone 25 ppm AI)?
**A.** Its pest or weed control at 25 ppm is 0%.

**Q.** What about the pest or weed control at 50 ppm ([3]; Pymetrozine alone 50 ppm AI) of the same molecule?
**A.** Its pest or weed control at 50 ppm is 0%.

**Q.** What about the pest or weed control at 100 ppm ([3]; Pymetrozine alone 100 ppm AI) of the same molecule?
**A.** The pest or weed control at 100 ppm was 0%.

**Q.** What about the pest or weed control at 200 ppm ([3]; Pymetrozine alone 200 ppm AI) of the same molecule?
**A.** Its pest or weed control at 200 ppm is 0%.

**Q.** What about the pest or weed control at 400 ppm ([3]; Pymetrozine alone 400 ppm AI) of the same molecule?
**A.** The pest or weed control at 400 ppm was 0%.

**Q.** What about the pest or weed control at 800 ppm ([3]; Pymetrozine alone 800 ppm AI) of the same molecule?
**A.** The pest or weed control at 800 ppm was 0%.

**Q.** And the pest or weed control at 25 ppm ([3]; single compound at 25 ppm AI)?
**A.** The pest or weed control at 25 ppm was 0%.

**Q.** And the pest or weed control at 50 ppm ([3]; single compound at 50 ppm AI)?
**A.** Its pest or weed control at 50 ppm is 0%.

**Q.** And the pest or weed control at 100 ppm ([3]; single compound at 100 ppm AI)?
**A.** Its pest or weed control at 100 ppm is 0%.

**Q.** What about the pest or weed control at 200 ppm ([3]; single compound at 200 ppm AI) of the same molecule?
**A.** Its pest or weed control at 200 ppm is 0%.

**Q.** And the pest or weed control at 400 ppm ([3]; single compound at 400 ppm AI)?
**A.** Its pest or weed control at 400 ppm is 0%.

**Q.** What about the pest or weed control at 800 ppm ([3]; single compound at 800 ppm AI) of the same molecule?
**A.** Its pest or weed control at 800 ppm is 0%.

**Q.** What about the “AVERAGE DEAD IN % AFTER 8 DAYS” value ([4]; 200 ppm alone) of the same molecule?
**A.** The value was 0%.

**Q.** What about the “AVERAGE DEAD IN % AFTER 1 DAY” value ([4]; Pymetrozine alone 200 ppm AI) of the same molecule?
**A.** The value was 5%.
